Where two headings read alike, the source gives them in different places.
Columns and labels:
[1] = rcm bond, Hoveyda-Grubbs II, then NaOH, DCE
[2] = tested on: recombinant NL-Rluc virus; assay: Inhibition of HIV replication (NL-RLuc luciferase reporter virus in MT-2 cells); format: cell-based; conditions: Human immunodeficiency virus 1, MT2, 120 h

Row | SMILES | EC50 [2] | also measured
1 | COC(=O)[C@@H](OC(C)(C)C)c1c(C)cn2nc3cc2c1N1CCC(C)(CC1)OCC=CCC[C@H](C)Oc1ccc(C)cc1-c1cccc-3c1 | – | ring closure, yield after HPLC ([1]; from C=CCC[C@H](C)Oc1ccc(C)cc1-c1cccc(-c2cc3c(N4CCC(C)(OCC=C)CC4)c([C@H](OC(C)(C)C)C(=O)OC)c(C)cn3n2)c1, 21-membered ring, then H2, Pd/C, 1.86 mM, 85.0 °C, 3.0 h, 3 steps): 40.6%
2 | COC(=O)[C@@H](OC(C)(C)C)c1c(C)cn2nc3cc2c1N1CCC(C)(CCC=CCOc2cc(F)ccc2CNC3=O)CC1 | – | ring closure, yield after HPLC ([1]; from C=CCCC1(C)CCN(c2c([C@H](OC(C)(C)C)C(=O)OC)c(C)cn3nc(C(=O)NCc4ccc(F)cc4OCC=C)cc23)CC1, 19-membered ring, 1.57 mM, 70.0 °C, 2.0 h, 2 steps): 53.5%
3 | Cc1cc(CNC(=O)c2cc3c(-c4ccc5c6c(ccnc46)CCO5)c([C@H](OC(C)(C)C)C(=O)O)c(C)cn3n2)ccc1F (atropisomer, axis not shown) [Example 2, (2S)-2-(tert-Butoxy)-2-(4-(2,3-dihydropyrano[4,3,2-de]quinolin-7-yl)-2-((4-fluoro-3-methylbenzyl)carbamoyl)-6-methylpyrazolo[1,5-a]pyridin-5-yl)acetic acid] | 63 nM | –
4 | Cc1ccc2c(c1)-c1cccc(c1)-c1cc3c(c([C@H](OC(C)(C)C)C(=O)O)c(C)cn3n1)N1CCC(C)(CC1)OCCCCC[C@@H](C)O2 (single isomer, unassigned) [Example 31] | 258 nM | –
5 | Cc1ccc2c(c1)-c1cccc(c1)-c1cc3c(c([C@H](OC(C)(C)C)C(=O)O)c(C)cn3n1)N1CCC(C)(CC1)OCCC[C@H](C)CO2 (single isomer, unassigned) [Example 32] | 178 nM | –
6 | Cc1ccc2c(c1)-c1cccc(c1)-c1cc3c(c([C@H](OC(C)(C)C)C(=O)O)c(C)cn3n1)N1CCC(C)(CC1)OCCC[C@@H](C)CO2 (single isomer, unassigned) [Example 33] | 116 nM | –
7 | Cc1cc(CNC(=O)c2cc3c(-c4cc(F)c5c(c4C)CCCO5)c([C@H](OC(C)(C)C)C(=O)O)c(C)cn3n2)ccc1F [Example 1] | 3 nM | –
8 | Cc1cc(CNC(=O)c2cc3c(N4CCC(C)(C)CC4)c([C@H](OC(C)(C)C)C(=O)O)c(C)cn3n2)ccc1F [Example 3, (S)-2-(tert-Butoxy)-2-(4-(4,4-dimethylpiperidin-1-yl)-2-((4-fluoro-3-methylbenzyl)carbamoyl)-6-methylpyrazolo[1,5-a]pyridin-5-yl)acetic acid] | 17 nM | –
9 | Cc1cn2nc(-c3ncc(Cc4ccc(F)cc4)s3)cc2c(N2CCC(C)(C)CC2)c1[C@H](OC(C)(C)C)C(=O)O [Example 4, (S)-2-(tert-Butoxy)-2-(4-(4,4-dimethylpiperidin-1-yl)-2-(5-(4-fluorobenzyl)thiazol-2-yl)-6-methylpyrazolo[1,5-a]pyridin-5-yl)acetic acid] | 18 nM | –
10 | Cc1cn2nc(-c3ncc(Cc4ccc(F)cc4)o3)cc2c(N2CCC(C)(C)CC2)c1[C@H](OC(C)(C)C)C(=O)O [Example 5, (S)-2-(tert-Butoxy)-2-(4-(4,4-dimethylpiperidin-1-yl)-2-(5-(4-fluorobenzyl)oxazol-2-yl)-6-methylpyrazolo[1,5-a]pyridin-5-yl)acetic acid] | 5 nM | –
11 | Cc1cn2nc3ccccc3c2c(-c2cc(F)c3c(c2C)CCCO3)c1[C@H](OC(C)(C)C)C(=O)O [Example 25, (2S)-2-(tert-Butoxy)-2-(10-(8-fluoro-5-methylchroman-6-yl)-8-methylpyrido[1,2-b]indazol-9-yl)acetic acid] | 37 nM | –
12 | Cc1cn2nc3cc2c(c1[C@H](OC(C)(C)C)C(=O)O)N1CCC(C)(CC/C=C/COc2cc(F)ccc2CNC3=O)CC1 [Example 26, (2S)-2-(tert-Butoxy)-2-[(21E)-16-fluoro-4,25-dimethyl-10-oxo-19-oxa-1,6,11,30-tetraazapentacyclo[23.2.2.1^6,^9.0^2,^7.0^13,^18]triaconta-2,4,7,9(30),13(18),14,16,21-octaen-3-yl]acetic acid] | 6 nM | –
13 | Cc1cn2nc3cc2c(c1[C@H](OC(C)(C)C)C(=O)O)N1CCC(C)(CC1)OC/C=C/COc1ccccc1Cc1cnc-3s1 [Example 27, (2S)-2-(tert-Butoxy)-2-[(23E)-4,27-dimethyl-21,26-dioxa-32-thia-1,6,11,33-tetraazahexacyclo[25.2.2.1^6,^9.1^10,^13.0^2,^7.0^15,^20]tritriaconta-2,4,7,9 (33),10,12,15(20),16,18,23-decaen-3-yl]acetic acid] | 4 nM | –
14 | C=CCOC1(C)CCN(c2c([C@H](OC(C)(C)C)C(=O)O)c(C)cn3nc(-c4cccc(Br)c4)cc23)CC1 [Example 28, (S)-2-(4-(4-(Allyloxy)-4-methylpiperidin-1-yl)-2-(3-bromophenyl)-6-methylpyrazolo[1,5-a]pyridin-5-yl)-2-(tert-butoxy)acetic acid] | 138 nM | –
15 | Cc1ccc2c(c1)-c1cccc(c1)-c1cc3c(c([C@H](OC(C)(C)C)C(=O)O)c(C)cn3n1)N1CCC(C)(CC1)OCCCC[C@H](C)O2 [Example 29, (2S)-2-(tert-Butoxy)-21[(22S)-4,17,22,28-tetramethyl-21,27-dioxa-1,6,34-triazahexacyclo[26.2.2.1^6,^9.1^10,^14.0^2,^7.0^15,^20]tetratriaconta-2,4,7,9 (34),10(33),11,13,15(20),16,18-decaen-3-yl]acetic acid] | 40 nM | –
16 | Cc1ccc2c(c1)-c1cccc(c1)-c1cc3c(c([C@H](OC(C)(C)C)C(=O)O)c(C)cn3n1)N1CCC(C)(CC1)OCCCCC[C@H](C)O2 [Example 30, (2S)-2-(tert-Butoxy)-2-[(22S)-4,17,22,29-tetramethyl-21,28-dioxa-1,6,35-triazahexacyclo[27.2.2.1^6,^9.1^10,^14.0^2,^7.0^15,^20]pentatriaconta-2,4,7,9 (35),10(34),11,13,15(20),16,18-decaen-3-yl]acetic acid] | 84 nM | –
17 | Cc1cn2nc3cc2c(c1[C@H](OC(C)(C)C)C(=O)O)N1CCC(C)(CC1)OCCCC[C@H](C)Oc1cccc(F)c1-c1cccc-3c1 [Example 34, (2S)-2-(tert-Butoxy)-2-[(22S)-16-fluoro-4,22,28-trimethyl-21,27-dioxa-1,6,34-triazahexacyclo[26.2.2.1^6,^9.1^10,^14.0^2,^7.0^15,^20]tetratriaconta-2,4,7,9(34),10(33),11,13,15(20),16,18-decaen-3-yl]acetic acid] | 14 nM | –
18 | CCC[C@H](C)Oc1cccc(F)c1-c1cccc(-c2cc3c(N4CCC(C)(O)CC4)c([C@H](OC(C)(C)C)C(=O)O)c(C)cn3n2)c1 [Example 35, (2S)-2-(tert-Butoxy)-2-[2-(3-{2-fluoro-6-[(2S)-pentan-2-yloxy]phenyl}phenyl)-4-(4-hydroxy-4-methylpiperidin-1-yl)-6-methylpyrazolo[1,5-a]pyridin-5-yl]acetic acid] | 607 nM | –
19 | Cc1cn2nc3cc2c(c1[C@H](OC(C)(C)C)C(=O)O)N1CCC(C)(CC1)OCCCC[C@H](C)Oc1ccc(F)cc1-c1cccc-3c1 [Example 36, (2S)-2-(tert-Butoxy)-2-[(22S)-17-fluoro-4,22,28-trimethyl-21,27-dioxa-1,6,34-triazahexacyclo[26.2.2.1^6,^9.1^10,^14.0^2,^7.0^15,^20]tetratriaconta-2,4,7,9(34),10(33),11,13,15(20),16,18-decaen-3-yl]acetic acid] | 50 nM | –
20 | Cc1cn2nc3cc2c(c1[C@H](OC(C)(C)C)C(=O)O)N1CCC(C)(CC1)OCCC[C@H](C)Oc1ccc(F)cc1-c1cccc-3c1 [Example 37, (2S)-2-(tert-Butoxy)-2-[(22S)-17-fluoro-4,22,27-trimethyl-21,26-dioxa-1,6,33-triazahexacyclo[25.2.2.1^6,^9.1^10,^14.0^2,^7.0^15,^20]tritriaconta-2,4,7,9(33),10(32),11,13,15(20),16,18-decaen-3-yl]acetic acid] | 29 nM | –
21 | Cc1cn2nc3cc2c(c1[C@H](OC(C)(C)C)C(=O)O)N1CCC(C)(CC1)OCCCC[C@H](C)Oc1cc(F)ccc1-c1cccc-3c1 [Example 38, (2S)-2-(tert-Butoxy)-2-[(22S)-18-fluoro-4,22,28-trimethyl-21,27-dioxa-1,6,34-triazahexacyclo[26.2.2.1^6,^9.1^10,^14.0^2,^7.0^15,^20]tetratriaconta-2,4,7,9 (34),10(33),11,13,15 (20),16,18-decaen-3-yl]acetic acid] | 30 nM | –
22 | Cc1ccc2c(c1F)-c1cccc(c1)-c1cc3c(c([C@H](OC(C)(C)C)C(=O)O)c(C)cn3n1)N1CCC(C)(CC1)OCCCC[C@H](C)O2 [Example 39, (2S)-2-(tert-Butoxy)-2-[(22S)-16-fluoro-4,17,22,28-tetramethyl-21,27-dioxa-1,6,34-triazahexacyclo[26.2.2.1^6,^9.1^10,^14.0^2,^7.0^15,^20]tetratriaconta-2,4,7,9(34),10(33),11,13,15(20),16,18-decaen-3-yl]acetic acid] | 38 nM | –
23 | Cc1ccc2c(c1F)-c1cccc(c1)-c1cc3c(c([C@H](OC(C)(C)C)C(=O)O)c(C)cn3n1)N1CCC(C)(CC1)OCCCC[C@@H](C)O2 [Example 40, (2S)-2-(tert-Butoxy)-2-[(22R)-16-fluoro-4,17,22,28-tetramethyl-21,27-dioxa-1,6,34-triazahexacyclo[26.2.2.1^6,^9.1^10,^14.0^2,^7.0^15,^20]tetratriaconta-2,4,7,9(34),10(33),11,13,15(20),16,18-decaen-3-yl]acetic acid] | 2350 nM | –
24 | CCCOC1(C)CCN(c2c([C@H](OC(C)(C)C)C(=O)O)c(C)cn3nc(-c4cccc(-c5c(O[C@@H](C)CCC)ccc(C)c5F)c4)cc23)CC1 [Example 41, (2S)-2-(tert-Butoxy)-2-[2-(3-{2-fluoro-3-methyl-6-[(2S)-pentan-2-yloxy]phenyl}phenyl)-6-methyl-4-(4-methyl-4-propoxypiperidin-1-yl)pyrazolo[1,5-a]pyridin-5-yl]acetic acid] | 728 nM | –
25 | Cc1cn2nc3cc2c(c1[C@H](OC(C)(C)C)C(=O)O)N1CCC(C)(CC1)OCCCC[C@H](C)Oc1ccc(C#N)cc1-c1cccc-3c1 [Example 42, (2S)-2-(tert-Butoxy)-2-[(22S)-17-cyano-4,22,28-trimethyl-21,27-dioxa-1,6,34-triazahexacyclo[26.2.2.1^6,^9.1^10,^14.0^2,^7.0^15,^20]tetratriaconta-2,4,7,9 (34),10(33),11,13,15(20),16,18-decaen-3-yl]acetic acid] | 7 nM | –
